Measurements from the supplement of paper PMC11208160.

Assay: recombinant UMI read abundance after kanamycin selection (control-corrected) (log10(CPM+1)); higher = more efficient recombination; extreme values may be limits of the assay; sequences stand for … in AGTGCAGAGAAAATCGGCCAGTTTTCTCTGCCTGCAGTCCGCATGCCGTGGGACCCCTTGGGTTCTAACCTGTTGCCTAGATTTATGCAGCGGACTGCCTTTCTCCCAAAGTGATAAACCGG…AGGTTGGTTTCACT; site = the 11-nt donor
Summary of the method: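 After plating on IPTG (0.07 mM) plus kanamycin, or unselected, in two replicates, recombinant UMIs were PCR-amplified across the donor–target junction and sequenced. The cells were Escherichia coli co-electroporated with a UMI-tagged donor and donor-binding-loop pair library and a target plasmid with a fixed target and T7-inducible IS621 bridge recombinase. Values are log10(CPM+1), with CPM averaged over replicates and scaled by control-derived factors.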
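Further: IS621 bridge recombinase in Escherichia coli cells against a fixed T5 target plasmid.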

Sequence	recombinant UMI read abundance (log10)
GTAGGTACATGGACCGGTTTTCCCGGTAATCCGTATTTGTT (site GTAGGTACTAA)	1.01
GTAGGTCCATGGACCGGTTTTCCCGGTAATCCGTATTTGAC (site GTAGGTACTGT)	0
GTAGGTCCATGGACCGGTTTTCCCGGTAATCCGTATTTGAC (site GTAGGTCCTGT)	0
GTAGGTCCATGGACCGGTTTTCCCGGTAATCCGTATTTGAC (site GTAGGTGCTGT)	0
GTAGGTCCATGGACCGGTTTTCCCGGTAATCCGTATTTGAC (site GTAGGTTCTGT)	0
GTAGGTTCATGGACCGGTTTTCCCGGTAATCCGTATTTGAC (site GTAGGTACTGT)	1.88
GTAGGTTCATGGACCGGTTTTCCCGGTAATCCGTATTTGAC (site GTAGGTCCTGT)	1.78
GTAGGTTCATGGACCGGTTTTCCCGGTAATCCGTATTTGAC (site GTAGGTGCTGT)	0
GTAGGTTCATGGACCGGTTTTCCCGGTAATCCGTATTTGAC (site GTAGGTTCTGT)	2.46
GTAGTATCATGGACCGGTTTTCCCGGTAATCCGTATTTGAT (site CTAGTATCTGT)	1.05
GTAGTATCATGGACCGGTTTTCCCGGTAATCCGTATTTGAT (site GTAGTATCTAT)	3.08
GTAGTGGCATGGACCGGTTTTCCCGGTAATCCGTATTTGGT (site GAAGTGGCTAC)	0.458
GTAGTGGCATGGACCGGTTTTCCCGGTAATCCGTATTTGGT (site GCAGTGGCTAC)	0.771
GTAGTGGCATGGACCGGTTTTCCCGGTAATCCGTATTTGGT (site GGAGTGGCTAC)	0.028
GTAGTGGCATGGACCGGTTTTCCCGGTAATCCGTATTTGGT (site GTAGTGGCTAC)	1.85
GTAGTGTCATGGACCGGTTTTCCCGGTAATCCGTATTTGAC (site CTAGTATCTGT)	2.03
GTAGTGTCATGGACCGGTTTTCCCGGTAATCCGTATTTGAC (site GTAGTGTCTGT)	3.23

Sequence	recombinant UMI read abundance (log10)
GTAGTTTCATGGACCGGTTTTCCCGGTAATCCGTATTTGTA (site GTAGTTTCTTA)	2.61
GTATGCACATGGACCGGTTTTCCCGGTAATCCGTATTTGCA (site GTATGCACTTA)	0.546
GTATGCACATGGACCGGTTTTCCCGGTAATCCGTATTTGCA (site GTATGCACTTC)	0.0124
GTATGCACATGGACCGGTTTTCCCGGTAATCCGTATTTGCA (site GTATGCACTTG)	2.67
GTATGCACATGGACCGGTTTTCCCGGTAATCCGTATTTGCA (site GTATGCACTTT)	0.427
GTATGCACATGGACCGGTTTTCCCGGTAATCCGTATTTGTA (site ATATGCACTTA)	0.664
GTATGCACATGGACCGGTTTTCCCGGTAATCCGTATTTGTA (site CTATGCACTTA)	0.712
GTATGCACATGGACCGGTTTTCCCGGTAATCCGTATTTGTA (site GAATGCACTTA)	0.0229
GTATGCACATGGACCGGTTTTCCCGGTAATCCGTATTTGTA (site GCATGCACTTA)	0.671
GTATGCACATGGACCGGTTTTCCCGGTAATCCGTATTTGTA (site GGATGCACTTA)	0.58
GTATGCACATGGACCGGTTTTCCCGGTAATCCGTATTTGTA (site GTAAGCACTTA)	0.776
GTATGCACATGGACCGGTTTTCCCGGTAATCCGTATTTGTA (site GTACGCACTTA)	1.72
GTATGCACATGGACCGGTTTTCCCGGTAATCCGTATTTGTA (site GTAGGCACTTA)	0.461
GTATGCACATGGACCGGTTTTCCCGGTAATCCGTATTTGTA (site GTATACACTTA)	2.07
GTATGCACATGGACCGGTTTTCCCGGTAATCCGTATTTGTA (site GTATCCACTTA)	0.28
GTATGCACATGGACCGGTTTTCCCGGTAATCCGTATTTGTA (site GTATGAACTTA)	0.66
GTATGCACATGGACCGGTTTTCCCGGTAATCCGTATTTGTA (site GTATGCACTAA)	0.126
